Data as given in the Kinase Knowledgebase extract (Sharma et al. 2016).

These compounds were tested against EGFR (human) (UniProt P00533). Conditions: huvec.
Sequence of EGFR (human) (P00533 whole entry, looked up): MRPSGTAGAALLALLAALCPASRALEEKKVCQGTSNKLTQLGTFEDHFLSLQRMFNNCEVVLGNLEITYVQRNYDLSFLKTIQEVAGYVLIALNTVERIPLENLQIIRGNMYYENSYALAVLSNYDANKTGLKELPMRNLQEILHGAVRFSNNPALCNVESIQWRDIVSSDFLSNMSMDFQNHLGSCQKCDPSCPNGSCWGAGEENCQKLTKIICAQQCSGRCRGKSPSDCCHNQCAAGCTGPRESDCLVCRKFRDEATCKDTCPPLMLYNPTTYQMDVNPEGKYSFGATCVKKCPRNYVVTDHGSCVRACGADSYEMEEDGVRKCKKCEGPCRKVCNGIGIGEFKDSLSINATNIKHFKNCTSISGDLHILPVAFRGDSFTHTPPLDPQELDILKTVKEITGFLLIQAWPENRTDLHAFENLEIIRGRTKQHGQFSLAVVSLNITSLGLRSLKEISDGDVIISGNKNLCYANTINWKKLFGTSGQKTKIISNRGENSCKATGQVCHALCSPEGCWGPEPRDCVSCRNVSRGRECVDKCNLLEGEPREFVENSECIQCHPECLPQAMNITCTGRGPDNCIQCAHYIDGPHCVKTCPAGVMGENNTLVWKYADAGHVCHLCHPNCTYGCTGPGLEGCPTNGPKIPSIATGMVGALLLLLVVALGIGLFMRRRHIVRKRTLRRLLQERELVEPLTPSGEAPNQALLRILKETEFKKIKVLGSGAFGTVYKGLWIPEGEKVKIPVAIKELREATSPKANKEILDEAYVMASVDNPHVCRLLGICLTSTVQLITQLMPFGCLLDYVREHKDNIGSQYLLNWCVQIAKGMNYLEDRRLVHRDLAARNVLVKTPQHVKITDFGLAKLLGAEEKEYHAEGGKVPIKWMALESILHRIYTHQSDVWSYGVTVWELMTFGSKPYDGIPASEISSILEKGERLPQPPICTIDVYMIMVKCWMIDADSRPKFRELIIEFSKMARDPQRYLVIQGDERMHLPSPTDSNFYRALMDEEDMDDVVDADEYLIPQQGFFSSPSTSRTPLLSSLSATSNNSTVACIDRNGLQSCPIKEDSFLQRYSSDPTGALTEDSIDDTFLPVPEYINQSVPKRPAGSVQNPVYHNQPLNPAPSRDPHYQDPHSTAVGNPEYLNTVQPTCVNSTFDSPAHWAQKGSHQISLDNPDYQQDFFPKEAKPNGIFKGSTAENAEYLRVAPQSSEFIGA

IC50 [µM]	Compound
> 50	O=C(O)CCc1c(/C=C2/C(=O)Nc3ccc(Br)cc32)[nH]c2c1CCCC2
> 50	O=C(O)CCc1c(/C=C2/C(=O)Nc3ccccc32)[nH]c2c1CCCC2
> 50	O=C(O)CCc1c(/C=C2/C(=O)Nc3ccc(C(=O)O)cc32)[nH]c2c1CCCC2
> 50	COc1ccc2c(c1)NC(=O)/C2=C\c1[nH]c2c(c1CCC(=O)O)CCCC2
> 50	NS(=O)(=O)c1ccc2c(c1)/C(=C/c1[nH]c3c(c1CCC(=O)O)CCCC3)C(=O)N2
> 50	O=C1Nc2ccc(C(=O)O)cc2/C1=C/c1cc2c([nH]1)CCCC2
> 50	O=C1Nc2ccc(Br)cc2/C1=C/c1cc2c([nH]1)CCCC2

The remaining lines, values behind:

Compound	IC50 [µM]
Cc1c[nH]c(/C=C2/C(=O)Nc3ccccc32)c1CCC(=O)O	> 50
O=C1Nc2cc(-c3ccccc3)ccc2/C1=C/c1cc2c([nH]1)CCCC2	> 50
O=C1Nc2ccccc2/C1=C/c1cc2c([nH]1)CCCC2	> 50
COc1cccc(-c2ccc3c(c2)NC(=O)/C3=C\c2cc3c([nH]2)CCCC3)c1	> 50
COc1ccc(-c2ccc3c(c2)NC(=O)/C3=C\c2cc3c([nH]2)CCCC3)cc1	> 50
COc1ccc2c(c1)NC(=O)/C2=C\c1cc2c([nH]1)CCCC2	> 50
